Measured values reported in patent US9260397B2, “Salts comprising aryl-alkyl-substituted imidazolium and triazolium cations and the use thereof” (TECHNISCHE UNIVERSITAET DRESDEN, priority 2008, dated 2016).

Experiments:
[1] = Thermal stability (decomposition point); type: physicochemical
[2] = Solubility in ether or THF; type: physicochemical
Procedure: To 80 mg 1-mesityl-3-tetradecyl imidazolium tetrafluoroborate (Example 97) 4 ml diethylether or 2 ml tetrahydrofuran are added.

Compound | Decomposition point [1] | solubility in tetrahydrofuran ([2]; 80 mg in 2 ml tetrahydrofuran) | solubility in diethylether ([2]; 80 mg in 4 ml diethylether)
1-mesityl-3-pentylimidazolium bis(trifluoromethylsulfone)imide [Example 71] | 440 °C | – | –
1-heptyl-3-mesitylimidazolium bis(trifluoromethylsulfone)imide [Example 73] | 440 °C | – | –
1-butyl-3-mesitylimidazolium bis(trifluoromethylsulfone)imide [Example 70] | 440 °C | – | –

Continued, values first:

Decomposition point [1] | solubility in tetrahydrofuran ([2]; 80 mg in 2 ml tetrahydrofuran) | solubility in diethylether ([2]; 80 mg in 4 ml diethylether) | Compound
440 °C | – | – | 1-mesityl-3-propylimidazolium bis(trifluoromethylsulfone)imide [Example 69]
440 °C | – | – | 1-hexyl-3-mesitylimidazolium bis(trifluoromethylsulfone)imide [Example 72]
– | dissolved easily | not dissolved | CCCCCCCCCCCCCC[n+]1ccn(-c2c(C)cc(C)cc2C)c1.F[B-](F)(F)F [1-mesityl-3-tetradecyl imidazolium tetrafluoroborate]
